Laboratory results from PubChem BioAssay (NCI).
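GI50 marks 50% less growth. Definition used: TGI = concentration required for complete inhibition of growth.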

Legend:
Experiment in all cases: NCI anticancer screen, dose series, 384-well format
[1] = system: ACHN renal
[2] = system: BT-549 breast
[3] = system: HL-60(TB) leukemia
[4] = system: KM12 colon
[5] = system: MALME-3M melanoma
[6] = system: NCI/ADR-RES ovarian
[7] = system: OVCAR-5 ovarian
[8] = system: SF-268 CNS
[9] = system: SK-OV-3 ovarian
[10] = system: SN12C renal
[11] = system: SW-620 colon
[12] = system: TK-10 renal
[13] = system: UACC-257 melanoma

C[C@@H](Oc1cc(-c2cnn(C3CCNCC3)c2)cnc1N)c1c(Cl)cc(F)cc1Cl gave a GI50 [1] of 1890 nM, a TGI [1] of 5.77 µM and a GI50 [2] of 1850 nM. For the same molecule, the TGI [2] was 3.45 µM, the GI50 [3] was 256 nM and the TGI [3] was 485 nM. It also gave a GI50 [4] of 43.1 nM, a TGI [4] of 2270 nM and a GI50 [5] of 1230 nM. For the same molecule, the TGI [5] was 2480 nM, the GI50 [6] was 6.36 µM and the TGI [6] was 16 µM. For the same molecule, the GI50 [7] was 2220 nM, the TGI [7] was 6.92 µM and the GI50 [8] was 2210 nM. For the same molecule, the TGI [8] was 5.32 µM, the GI50 [9] was 5.4 µM and the TGI [9] was 9.79 µM. It also gave a GI50 [10] of 2110 nM, a TGI [10] of 8.7 µM and a GI50 [11] of 1250 nM. For the same molecule, the TGI [11] was 4.65 µM, the GI50 [12] was 3.66 µM and the TGI [12] was 7.63 µM. It also gave a GI50 [13] of 1670 nM and a TGI [13] of 3.04 µM.
